What was measured:
[1] = biological target: hCA I (Homo sapiens, UniProt P00915); experiment: stopped-flow CO2 hydrase assay, hCA I
Protocol: (§1) The newly synthesized 1,2,3-triazole linked triazino[5,6-b]indole-benzene sulfonamide hybrids (6a–6o) were evaluated for their carbonic anhydrase inhibitory activity against a panel of carbonic anhydrases, i.e., hCA I, hCA II, hCA IX, and hCA XIII, by the stopped-flow CO2 hydrase assay method. Highly purified CA isoforms were employed, for which the kinetic parameters for the physiologic reaction (CO2 hydration) were measured (see the Experimental section for details), monitoring the color change produced by the formation of H^+ ions (and bicarbonate). […] All the newly synthesized analogs were evaluated in vitro for their inhibitory activity against a panel of recombinant CA isoforms, i.e., hCA I, hCA II, hCA IX, and hCA XIII, obtained inhouse, using the stopped-flow CO2 hydrase assay.
(§2) An SX.18 V-R Applied Photophysics (Oxford, UK) stopped-flow instrument was used to assay the catalytic inhibition of various CA enzymes [32]. […] IC50-s values were calculated from the enzyme activity (as kcat, see Table 2) with respect to the inhibitor concentration.

[2] = biological target: hCA II (Homo sapiens, UniProt P00918); experiment: stopped-flow CO2 hydrase assay, hCA II
Protocol: as §1, §2

[3] = biological target: hCA IX (Homo sapiens, UniProt Q16790); experiment: stopped-flow CO2 hydrase assay, hCA IX
Protocol: as §1, §2

[4] = biological target: hCA XIII (Homo sapiens, UniProt Q8N1Q1); experiment: stopped-flow CO2 hydrase assay, hCA XIII
Chain of hCA XIII (Q8N1Q1 whole entry): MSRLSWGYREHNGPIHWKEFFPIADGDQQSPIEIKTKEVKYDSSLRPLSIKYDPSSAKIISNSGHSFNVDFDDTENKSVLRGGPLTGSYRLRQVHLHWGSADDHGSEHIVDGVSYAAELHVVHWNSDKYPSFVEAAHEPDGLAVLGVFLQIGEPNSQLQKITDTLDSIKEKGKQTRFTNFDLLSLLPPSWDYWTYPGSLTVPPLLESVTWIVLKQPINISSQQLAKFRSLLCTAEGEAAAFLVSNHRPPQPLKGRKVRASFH
Protocol: as §1, §2

Chain of hCA I (P00915 whole entry): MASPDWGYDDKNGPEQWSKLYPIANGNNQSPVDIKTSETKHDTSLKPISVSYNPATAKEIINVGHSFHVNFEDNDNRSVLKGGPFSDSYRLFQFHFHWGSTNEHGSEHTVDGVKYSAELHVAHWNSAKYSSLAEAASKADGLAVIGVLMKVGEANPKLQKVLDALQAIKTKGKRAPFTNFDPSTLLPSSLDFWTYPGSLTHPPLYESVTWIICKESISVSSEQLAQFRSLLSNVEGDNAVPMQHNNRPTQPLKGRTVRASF

## Cn1c2ccccc2c2nnc(SCc3cn(-c4ccc(S(N)(=O)=O)cc4)nn3)nc21 [Compound 6a]
other
  melting point: 235 to 240 °C
[1]
  Ki: 0.91 µM
[2]
  Ki: 0.0655 µM
[3]
  Ki: 0.286 µM
[4]
  Ki: 0.0778 µM

## CCn1c2ccccc2c2nnc(SCc3cn(-c4ccc(S(N)(=O)=O)cc4)nn3)nc21 [Compound 6b]
other
  melting point: 202 to 204 °C
[1]
  Ki: 0.642 µM
[2]
  Ki: 0.072 µM
[3]
  Ki: 0.172 µM
[4]
  Ki: 0.0698 µM

## CCCn1c2ccccc2c2nnc(SCc3cn(-c4ccc(S(N)(=O)=O)cc4)nn3)nc21 [Compound 6c]
other
  melting point: 261 to 263 °C
[1]
  Ki: 3.96 µM
[2]
  Ki: 0.0887 µM
[3]
  Ki: 0.219 µM
[4]
  Ki: 0.365 µM

## CC(C)n1c2ccccc2c2nnc(SCc3cn(-c4ccc(S(N)(=O)=O)cc4)nn3)nc21 [Compound 6d]
other
  melting point: 213 to 215 °C
[1]
  Ki: 0.315 µM
[2]
  Ki: 0.0209 µM
[3]
  Ki: 0.0378 µM
[4]
  Ki: 0.0658 µM

## C=CCn1c2ccccc2c2nnc(SCc3cn(-c4ccc(S(N)(=O)=O)cc4)nn3)nc21 [Compound 6e]
other
  melting point: 230 to 232 °C
[1]
  Ki: 0.536 µM
[2]
  Ki: 0.0417 µM
[3]
  Ki: 0.0411 µM
[4]
  Ki: 0.627 µM

## Cn1c2ccc(F)cc2c2nnc(SCc3cn(-c4ccc(S(N)(=O)=O)cc4)nn3)nc21 [Compound 6f]
other
  melting point: 244 to 246 °C
[1]
  Ki: 0.766 µM
[2]
  Ki: 0.0596 µM
[3]
  Ki: 0.0413 µM
[4]
  Ki: 0.835 µM

## CCn1c2ccc(F)cc2c2nnc(SCc3cn(-c4ccc(S(N)(=O)=O)cc4)nn3)nc21 [Compound 6g]
other
  melting point: 246 to 248 °C
[1]
  Ki: 0.699 µM
[2]
  Ki: 0.0639 µM
[3]
  Ki: 0.193 µM
[4]
  Ki: 0.675 µM

## CCCn1c2ccc(F)cc2c2nnc(SCc3cn(-c4ccc(S(N)(=O)=O)cc4)nn3)nc21 [Compound 6h]
other
  melting point: 240 to 242 °C
[1]
  Ki: 0.764 µM
[2]
  Ki: 0.683 µM
[3]
  Ki: 0.119 µM
[4]
  Ki: 1.81 µM

## CC(C)n1c2ccc(F)cc2c2nnc(SCc3cn(-c4ccc(S(N)(=O)=O)cc4)nn3)nc21 [Compound 6i]
other
  melting point: 235 to 237 °C
[1]
  Ki: 0.379 µM
[2]
  Ki: 0.0077 µM
[3]
  Ki: 0.0349 µM
[4]
  Ki: 0.736 µM

## C=CCn1c2ccc(F)cc2c2nnc(SCc3cn(-c4ccc(S(N)(=O)=O)cc4)nn3)nc21 [Compound 6j]
other
  melting point: 245 to 247 °C
[1]
  Ki: 4.59 µM
[2]
  Ki: 0.0737 µM
[3]
  Ki: 0.402 µM
[4]
  Ki: 0.794 µM

## Cn1c2ccc(Cl)cc2c2nnc(SCc3cn(-c4ccc(S(N)(=O)=O)cc4)nn3)nc21 [Compound 6k]
other
  melting point: 243 to 248 °C
[1]
  Ki: 5.14 µM
[2]
  Ki: 0.253 µM
[3]
  Ki: 0.331 µM
[4]
  Ki: 0.867 µM

## CCn1c2ccc(Cl)cc2c2nnc(SCc3cn(-c4ccc(S(N)(=O)=O)cc4)nn3)nc21 [Compound 6l]
other
  melting point: 252 to 256 °C
[1]
  Ki: 2.84 µM
[2]
  Ki: 0.185 µM
[3]
  Ki: 0.15 µM
[4]
  Ki: 3.98 µM

## CCCn1c2ccc(Cl)cc2c2nnc(SCc3cn(-c4ccc(S(N)(=O)=O)cc4)nn3)nc21 [Compound 6m]
other
  melting point: 257 to 262 °C
[1]
  Ki: 6.51 µM
[2]
  Ki: 0.0617 µM
[3]
  Ki: 0.205 µM
[4]
  Ki: 0.824 µM

## CC(C)n1c2ccc(Cl)cc2c2nnc(SCc3cn(-c4ccc(S(N)(=O)=O)cc4)nn3)nc21 [Compound 6n]
other
  melting point: 263 to 265 °C
[1]
  Ki: 0.572 µM
[2]
  Ki: 0.179 µM
[3]
  Ki: 0.321 µM
[4]
  Ki: 0.0913 µM

## C=CCn1c2ccc(Cl)cc2c2nnc(SCc3cn(-c4ccc(S(N)(=O)=O)cc4)nn3)nc21 [Compound 6o]
other
  melting point: 261 to 264 °C
[1]
  Ki: 0.694 µM
[2]
  Ki: 0.0971 µM
[3]
  Ki: 0.325 µM
[4]
  Ki: 2.3 µM
